What is called IC10 is the point of the concentration-response curve where the effect stands at 10%.

“And” between values parts separate entries of the source, which are not always exact repeats. Identical values can stand only once.

From patent publication US11578369B2, “Method for the in vitro prognosis of individuals having multiple myeloma and method for the treatment thereof” (CENTRE NATIONAL DE LA RECHERCHE SCIENTIFIQUE, priority 2016, dated 2023) come the findings set out here.

Assay type in all cases: cell-based, human
Assay [1] relates to IRF4. Briefly: IRF4 protein level in HMCLs by flow cytometry. Conditions: 1 μM EPZ-6438 4 days, then 2 days with or without 2 μM lenalidomide. The method, then:
(§1) The expression of IKZF1, c-Myc and IRF4 in HMCLs was evaluated by flow cytometry using PE-conjugated anti-IKZFL anti-MYC and anti-IRF4 mAb and isotype matched PE-conjugated mAb. Data are mean values±standard deviation (SD) of three experiments.
(§2) The expression of IKZF1, c-Myc and IRF4 in HMCLs was evaluated by flow cytometry using PE-conjugated anti-IKZF1, anti-MYC and anti-IRF4 mAb and isotype matched PE-conjugated mAb. IKZF1 expression was assessed by immunofluorescence using an anti-IKZF1 primary antibody and an AF555-conjugated secondary antibody and further plotted onto a graph.
(§3) Cells were fixed for 10 min with Cytofix/Cytoperm (BD BIOSCIENCES®) at 4° C.
(§4) IMiDs promote Ikaros and Aiolos transcription factors binding to the E3 ubiquitin ligase cereblon (CRBN) leading to Ikaros and Aiolos ubiquitination and proteasomal degradation. Ikaros and Aiolos degradation are associated with a downregulation of Interferon regulatory factor 4 (IRF4) and MYC playing an essential role in MMC survival.

Assay [2] has as its system MYC. Briefly: MYC protein level in HMCLs by flow cytometry. As to conditions: 1 μM EPZ-6438 4 days, then 2 days with or without 2 μM lenalidomide. The method, then:
as §1, §2, §3, §4

In assay [3] the test system is HMCLs. Nature of the assay: Sublethal dose (IC10) of Decitabine on HMCLs. The procedure: To assess the potential synergistic effect of the inhibition of these two repressive mechanisms, we tested the combination of a sublethal dose of Decitabine (100 nM, IC10) with EPZ-6438 (1 μM) on two EPZ-6438-resistant HMCLs. […] Therefore, DNA hypomethylation can collaborate with EZH2 inhibition to block MM cell growth.

The subject of assay [4] is IKZF1. Briefly: IKZF1 protein level in HMCLs by flow cytometry. Conditions: 1 μM EPZ-6438 4 days, then 2 days with or without 2 μM lenalidomide. The method, then: as §1, §2, §3, §4
On the technique in general: Flow cytometry measures light scatter and fluorescence of single cells or particles in a stream.

For assay [5], the system named is primary MMCs. Nature of the assay: Sensitivity of patients' primary MMCs to EPZ-6438, 8-day culture, viable MMC count by CD138 flow cytometry. As to conditions: primary MMCs of 14 MM patients, one table row per patient; 1 μM EPZ-6438, 8 days, IL-6; in % (unit assumed). The method, then:
FIG. 3B: EZ score predicts for sensitivity of HMCLs and primary MMCs to EZH2 inhibitor. EZ score predicts for EPZ-6438 sensitivity of primary myeloma cells of patients. Mononuclear cells from tumor samples of 14 patients with MM were cultured for 8 days in the presence of IL-6 (2 ng/ml) with or without 1 μM EPZ-6438. At day 8 of culture, the count of viable MMCs was determined using CD138 staining by flow cytometry.
Bone marrow samples were collected after patients' written informed consent in accordance with the Declaration of Helsinki and institutional research board approval from Heidelberg and Montpellier University hospital. […] The structural chromosomal aberrations including t(4; 14)(p16.3; q32.3) and t(11; 14)(q13; q32.3), as well as numerical aberrations including 17p13 and 1q21 gain, were assayed by fluorescence in situ hybridization (iFISH). […] As iFISH data are not available for UAMS-TT2 patients, t(4; 14) translocation was evaluated using MMSET spike expression and del17p13 surrogated by TP53 probe set signal. […]
The inventors have determined that a set of 5 genes that are differentially expressed in a cohort of 14 MM individuals is associated with a prognostic value of their responsiveness to the EZH2 inhibitor EPZ-6438, as shown in Table 2 below. […]

Assay [6] concerns HMCLs. Nature of the assay: Sensitivity of HMCLs with high or low EZ score to EPZ-6438, cell growth assay. Conditions: 1 μM EPZ-6438, 8 days; P=0.04. The method, then: FIG. 3A: EZ score predicts for sensitivity of HMCLs and primary MMCs to EZH2 inhibitor. […] Human myeloma cell lines were cultured for 8 days in 96-well flat-bottom microtiter plates in RPMI 1640 medium, 10% fetal calf serum, 2 ng/ml IL-6 culture medium (control) and 1 μM EPZ-6438. Data are mean values±standard deviation (s.d.) of five experiments determined.
HMCLs were cultured for 15 days in RPMI 1640 medium, 10% FCS, and 2 ng/ml IL-6 (control medium) in the presence of EPZ-6438 ([…]®). Cell concentration and viability were assessed using trypan blue dye exclusion test. The number of metabolic-active was also determined using intracellular ATP quantitation. […] Cell growth was evaluated by quantifying intracellular ATP amount with a Cell Titer Glo Luminescent Assay (PROMEGA®, Madison, Wis.) using a Centro LB 960 luminometer (BERTHOLD TECHNOLOGIES®, Bad Wildbad, Germany).
It was then sought to validate whether the EZ-score could predict for the sensitivity of 10 HMCLs to EPZ-6438. Starting from the large cohort of 40 HMCLs, the response of 5 HMCLs with a high EZ score and 5 HMCLs with a low EZ score to EPZ-6438 EZH2 inhibitor was analyzed.

In assay [7] the test system is LP1 and XG19 lenalidomide sensitive cell lines. Nature of the assay: Lenalidomide sensitivity of HMCLs after EPZ-6438 pretreatment, cell growth assay. Conditions: 4 days 1 uM EPZ-6438 prior to lenalidomide, P<0.05.
Description: HMCLs were cultured for 15 days in RPMI 1640 medium, 10% FCS, and 2 ng/ml IL-6 (control medium) in the presence of EPZ-6438 ([…] ®). Cell concentration and viability were assessed using trypan blue dye exclusion test. The number of metabolic-active was also determined using intracellular ATP quantitation.

Regarding `Nc1cccc2c1CN(C1CCC(=O)NC1=O)C2=O` (stereo not drawn) [lenalidomide], the “IRF4 protein level inhibition” value in assay [1] stood at 43%. Besides, the “MYC protein level inhibition” value in assay [2] is recorded as 2.2%.

For `Nc1ncn([C@H]2C[C@H](O)[C@@H](CO)O2)c(=O)n1` [Decitabine], the IC10 in assay [3] is recorded as 100 nM.

`CCN(c1cc(-c2ccc(CN3CCOCC3)cc2)cc(C(=O)NCc2c(C)cc(C)[nH]c2=O)c1C)C1CCOCC1` [EPZ-6438, EPZ-6438 (Tazemetostat)]: the “IKZF1 protein level inhibition” value in assay [4] stood at 45.2%. Also, the Response in assay [5] is 64.15 and 46.39 and 53.41 and 61.33 and 72.61 and 112.5 and 84.96 and 118 and 79.27 and 77.76 and 101.43 and 73.09 and 66.53 and 72.01. Besides, the “IRF4 protein level inhibition” value in assay [1] is given as 38.7%. The “median higher EPZ-6438 sensitivity, 5 HMCLs with highest EZ score compared to 5 HMCLs with low EZ-score” value in assay [6] was 20 fold. Further, in assay [2], the “MYC protein level inhibition” value was determined as 6.2%. Moreover, the “sensitization of myeloma cell lines to lenalidomide treatment” value in assay [7] is recorded as “significantly sensitize”.
